Ends that are not written are not given here.
Test system: A375 melanoma cell
Test: Cell adhesion inhibition activity of synthetic peptides (cell suspension includes the peptide)
Format: cell-based
Conditions: Concentration 200 μg/ml; adhesion to fibronectin-coated plate, 60 minutes, 0.2% DMSO
Protocol: The above synthetic peptides were used in this experiment after being dissolved in dimethyl sulfoxide (DMSO: Wako Jyunyaku Co.). To adjust a condition of each experiment to the same, DMSO was added into phosphate buffers containing urea-non-treated Hep 2 fragment, urea-treated Hep 2 fragment, GRGDSP peptide and phosphate buffer itself as a control, respectively. The concentration of DMSO of each experiment was adjusted to 0.2% of final concentration. Inhibition activity against cell adhesion was evaluated according to the method of Fukai et al. (Biochem. Biophys. Res. Commun., 220, 394-398, 1996). In other words, the inhibition activity against cell adhesion of A375 melanoma cell to a plate was measured under the condition with or without the above various synthetic peptides. A375 melanoma cell (American Type Culture Collection: ATCC) was suspended in Dulbecco's modified eagle medium (DMEM: Gibuco Co.) including 0.1% Ovalbumin (Wako Jyunyaku Co.) to be a concentration of 2×10^5 cells/ml. Before preparing cell suspension, a plate was coated with fibronectin according to the method of Miekka et al. Specifically, phosphate buffer containing 10 μg/ml of fibronectin (FN) was prepared and 100 μl of the resultant phosphate buffer containing fibronectin was added into each well of a 96-well plate and then the plate was incubated at 37° C., 5% CO2 concentration for 60 minutes before being washed with phosphate buffer three times. Fibronectin (FN) was purified according to the method of Miekka et al. (Thromb. Res., 27, 1-14, 1982). One hundred (100) μl of the above cell suspension was added into each well of the plate and the plate was incubated at 37° C., 5% CO2 concentration for 60 minutes (Control was without any synthetic peptide). After fixing cells in each well with 5% of formaldehyde (Wako Jyunyaku Co.), non adhesion cells were removed and calls in five areas selected at random in each well were counted by the use of a microscope.
The addition of Hep 2 fragment and each peptide was carried out by the step in which a solution containing Hep 2 fragment or each peptides dissolved with high concentration was added to the cell suspension to obtain the final concentration of Hep 2 fragment or each peptides shown in Table 1.

| Substance | Cell adhesion inhibition activity |
| --- | --- |
| III 12-1: peptide consisting of SEQ ID NO:1, part of Hep 2 fragment (AIPAPTDLKFTQVTPTSLSAQWTPPNVQLTG) | 11% |
| III 12-2: peptide consisting of SEQ ID NO:2, part of Hep 2 fragment (INLAPDSSSVVVSGLMVATKWE) | 13% |
| III 12-3: peptide consisting of SEQ ID NO:3, part of Hep 2 fragment (VSVYALKDTLTSRPAQGVVTTLE) | 7% |
| III 13-1: peptide consisting of SEQ ID NO:4, part of Hep 2 fragment (NVSPPRRARVTDATETTITISWRTKTETI) | 4% |
| III 13-2: peptide consisting of SEQ ID NO:5, part of Hep 2 fragment (TGFQVDAVPANGQTPIQRTIKPDVR) | 11% |
| III 13-3: peptide consisting of SEQ ID NO:6, part of Hep 2 fragment (SYTITGLQPGTDYKIYLYTLNDNAR) | 9% |
| III 14-1: peptide consisting of SEQ ID NO:7, part of Hep 2 fragment (NLRFLATTPNSLLVSWQPPRARITGYIIK) | 11% |

Test system: melanoma cell
Test: not given
Conditions: in vivo; cited from earlier work

| Substance | inhibition of experimental metastasis of melanoma cell to lung |
| --- | --- |
| GRGDS | inhibits experimental metastasis of melanoma cell to lung |

Test system: A375 melanoma cell
Test: Cell adhesion inhibition activity (plate coated with fibronectin solution containing KLH modified synthetic peptide)
Format: cell-based
Conditions: Experiment 2, KLH modified peptides coated with fibronectin, FIG. 3
Protocol: The above various KLH modified synthetic peptides were added to a solution containing fibronectin to obtain a given concentration, then the procedure of Experiment 1 were repeated with the exception that the resultant solution were added into 96-well plate to coat it. The experiment without any synthetic peptide is a control (the concentration of a peptide was 0 μg/m 1).

| Substance | cell adhesion inhibition activity (in words) |
| --- | --- |
| III 14-2A: peptide of sequence ID NO:10, a part of peptide III 14-2; tested KLH modified (RPRPGVTEATITG; also: KLH conjugated) | very little cell adhesion inhibition activity |
| III 14-2B: peptide of sequence ID NO:11, a part of peptide III 14-2; tested KLH modified (LEPGTEYTIYVIALKNNQK; also: KLH conjugated) | the same strong cell adhesion inhibition activity as that of the peptide III 14-2 |
| III 14-2C: peptide of sequence ID NO:12, a part of peptide III 14-2; tested KLH modified (YTIYVIALKNNQK; also: KLH conjugated) | the same strong cell adhesion inhibition activity as that of the peptide III 14-2 |

Source: patent US6274704A, “Peptides derived from the heparin binding domain of fibronectin” (Hisamitsu Pharmaceutical Co., Inc., priority 1996, dated 2001)
